Results: US6355658B1, “Coumarin derivatives, methods of preparation and application as medicines” (Centre National de la Recherche Scientifique, priority 1997, dated 2002)

Columns and labels:
bovine α-chymotrypsin = molecular target: T1, bovine α-chymotrypsin (Bos taurus, UniProt P00766); experiment: Inactivation kinetics of bovine α-chymotrypsin (chromogenic substrate Suc-Ala2-Pro-Phe-pNA); type: biochemical; settings: 25° C., pH 7.5, N.I. = non-inactivator
T1 construct: bovine α-chymotrypsin
Experimental: (§1) The inactivating or inhibitory properties of the coumarin derivatives were tested with respect to a certain number of enzymes: human leukocyte elastase, bovine α-chymotrypsin, human thrombin and bovine trypsin. The kinetic measurements were taken at 25° C. in the following buffers: 0.1 M Hepes, 0.5 M NaCl, 0.01% Tween 80, pH 8.0 (human leukocyte elastase); 0.025 M NaH2PO4, 0.05 M KCl, pH 7.5 (α-chymotrypsin); 0.01 M Tris, 0.01 M Hepes, 0.1 M NaCl, 0.1% PEG-6000, pH 7.5 (human thrombin); 0.1 M Tris, 0.01 M CaCl2, pH 7.5 (bovine trypsin). The chromogenic substrates used to determine the activity of the enzymes are: MeOSuc-Ala2-Pro-Val-pNA (human leukocyte elastase); Suc-Ala2-Pro-Phe-pNA (α-chymotrypsin); H-D-Phe-Pip-Arg-pNA (human thrombin); N-benzoyl-Arg-pNA (bovine trypsin) (pNA: para-nitroaniline).
(§2) The interaction of a suicide substrate with a serine protease corresponds to the minimum reaction scheme described in equation 1 in which E represents the enzyme, I represents the inhibitor, E-I represents the acyl-enzyme and E-I′ represents the inactivated enzyme [Silverman R. B., 1988, “Mechanism-based enzyme inactivation: chemistry and enzymology”, volume 1 CRC Press, Boca Raton, Fla.]: [drawing 76]
(§3) When k4 is small compared to k3, equation 1 can be simplified (equation 2, [Daniels et al., 1983, J. Biol. Chem., 258: 15046-15053]): [drawing 77]
(§4) Considering the first instants of the reaction, the system reduces to a simplified equation of the form of equation 2.
(§5) The kinetic constants characterizing the inactivation of the enzymes with the coumarin derivatives were determined using either the conventional sampling method (or batchwise method) or a method placing the inhibitor and the substrate in competition (or continuous method); these methods are described by Pochet et al. [Pochet et al., 1996, J. Med. Chem., 39: 2579-2585].
(§6) The inactivation of serine proteaaes with the coumarin derivatives is thus characterized by the following constants (see Eq. 2):
(§7) KI: apparent dissociation constant of an enzyme-inhibitor complex located upstream of ki
(§8) ki: first-order rate constant for inactivation at infinite inhibitor concentration
(§9) ki/KI: index of the overall inactivating efficacy of the inhibitor.

human thrombin = molecular target: T2, human thrombin (Homo sapiens, UniProt P00734); experiment: Inactivation kinetics of human thrombin (chromogenic substrate H-D-Phe-Pip-Arg-pNA); type: biochemical; settings: 25° C., pH 7.5, N.I. = non-inactivator
T2 construct: human thrombin
Experimental: as §1, §2, §3, §4, §5, §6, §7, §8, §9

bovine trypsin = molecular target: T3, bovine trypsin (Bos taurus, UniProt P00760); experiment: Inactivation kinetics of bovine trypsin (chromogenic substrate N-benzoyl-Arg-pNA); type: biochemical; settings: 25° C., pH 7.5, N.I. = non-inactivator
T3 sequence (P00760 24-246): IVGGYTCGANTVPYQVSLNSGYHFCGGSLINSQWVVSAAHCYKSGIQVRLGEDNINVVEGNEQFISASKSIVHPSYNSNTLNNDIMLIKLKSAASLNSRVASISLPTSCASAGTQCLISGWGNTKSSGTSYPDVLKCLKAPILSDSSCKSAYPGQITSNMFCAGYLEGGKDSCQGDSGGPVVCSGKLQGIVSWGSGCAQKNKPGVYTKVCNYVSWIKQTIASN
Experimental: as §1, §2, §3, §4, §5, §6, §7, §8, §9

human leukocyte elastase = molecular target: T4, human leukocyte elastase (Homo sapiens, UniProt P08246); experiment: Inactivation kinetics of human leukocyte elastase (chromogenic substrate MeOSuc-Ala2-Pro-Val-pNA); type: biochemical; settings: 25° C., pH 8.0; for kinact/KI: TABLE 3, no chloromethyl in position 6, inactivation phase of transient inactivation, read-out: Ki/KI or kobs/[I], LHE; for Ki/KI or kobs/[I], LHE: TABLE 3, inactivation phase
T4 sequence (P08246 30-247 limits assumed): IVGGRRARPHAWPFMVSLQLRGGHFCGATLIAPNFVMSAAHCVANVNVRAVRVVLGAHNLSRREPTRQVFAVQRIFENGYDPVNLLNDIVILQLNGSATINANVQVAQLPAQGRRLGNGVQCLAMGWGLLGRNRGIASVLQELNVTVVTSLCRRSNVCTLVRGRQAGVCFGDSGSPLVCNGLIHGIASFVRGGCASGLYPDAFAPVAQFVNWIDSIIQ
Experimental: as §1, §2, §3, §4, §5, §6, §7, §8, §9

[1] = TABLE 3, no chloromethyl in position 6

Structure (SMILES)	Ki/KI or kobs/[I], α-CT (bovine α-chymotrypsin; [1])	Ki/KI or kobs/[I], α-CT (bovine α-chymotrypsin; second table headed TABLE 3)	Ki/KI or kobs/[I], Thrombin (human thrombin; TABLE 3)	Ki/KI or kobs/[I], Thrombin (human thrombin; second table headed TABLE 3)	Ki/KI or kobs/[I], Trypsin (bovine trypsin; TABLE 3)	Ki/KI or kobs/[I], Trypsin (bovine trypsin; second table headed TABLE 3)	melting point	kinact/KI (human leukocyte elastase)	Ki/KI or kobs/[I], LHE (human leukocyte elastase)
CC(C)C(=O)OCc1ccc2oc(=O)c(C(=O)Oc3cncc(Cl)c3)cc2c1 [Id9, 5-chloro-3-pyridyl 6-dimethylacetoxymethyl-2-oxo-2H-1-benzopyran-3-carboxylate]	N.I.^a N.I. N.I. N.I. N.I. N.I. N.I. N.I.	N.I.^a N.I. N.I. N.I. N.I. N.I. N.I. N.I.	N.I. N.I. N.I. N.I. N.I. N.I. N.I. N.I. —	N.I. N.I. N.I. N.I. N.I. N.I. N.I. N.I. —	N.I. N.I. N.I. N.I. N.I. N.I. N.I. — —	N.I. N.I. N.I. N.I. N.I. N.I. N.I. — —	162 to 164 °C	45000 M⁻¹ s⁻¹	45000 M⁻¹ s⁻¹
CCCC(=O)OCc1ccc2oc(=O)c(C(=O)Oc3cncc(Cl)c3)cc2c1 [Id10, 5-chloro-3-pyridyl 6-butyryloxymethyl-2-oxo-2H-1-benzopyran-3-carboxylate]	N.I.^a N.I. N.I. N.I. N.I. N.I. N.I. N.I.	N.I.^a N.I. N.I. N.I. N.I. N.I. N.I. N.I.	N.I. N.I. N.I. N.I. N.I. N.I. N.I. N.I. —	N.I. N.I. N.I. N.I. N.I. N.I. N.I. N.I. —	N.I. N.I. N.I. N.I. N.I. N.I. N.I. — —	N.I. N.I. N.I. N.I. N.I. N.I. N.I. — —	146 to 148 °C	67600 M⁻¹ s⁻¹	67600 M⁻¹ s⁻¹
